Test results: patent US20250250232A1, “AZETIDINE DERIVATIVES AND USE THEREOF AS DIPEPTIDYL PEPTIDASE 1 INHIBITORS” (CHIESI FARMACEUTICI S.P.A., priority 2022, published 2025)

Target: T1, human DPP1 enzyme (Homo sapiens (Human), UniProt P53634)
T1 sequence (P53634 231-394): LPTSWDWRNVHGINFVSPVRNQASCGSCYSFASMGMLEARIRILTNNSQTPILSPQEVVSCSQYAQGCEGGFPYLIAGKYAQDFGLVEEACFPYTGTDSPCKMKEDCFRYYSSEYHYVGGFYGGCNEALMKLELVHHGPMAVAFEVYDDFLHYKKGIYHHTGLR
T1 sequence (P53634 25-134): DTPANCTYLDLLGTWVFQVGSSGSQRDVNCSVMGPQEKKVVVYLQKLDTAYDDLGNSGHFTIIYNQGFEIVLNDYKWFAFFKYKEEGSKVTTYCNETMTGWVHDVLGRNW
T1 sequence (P53634 395-463): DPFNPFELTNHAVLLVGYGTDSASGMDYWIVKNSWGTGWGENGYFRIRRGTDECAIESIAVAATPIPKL
Assay: not given
Settings: values from K Doyle, J. Med. Chem. 2016, Table 3; cited from earlier work
In the case of `Cn1c(=O)oc2ccc(-c3ccc(C[C@@H](C#N)NC(=O)C4(C(F)F)CNC4)cc3)cc21` [compound 14, (S)-N-(1-cyano-2-(4-(3-methyl-2-oxo-2,3-dihydrobenzo[d]oxazol-5-yl)phenyl)ethyl)-3-(difluoromethyl)azetidine-3-carboxamide], the “pIC50 in the human recombinant DPP1 isolated enzyme assay (state of the art)” value (from here on “pIC50 … (state of the art)”) is given as “less than 5”. In the case of `N#C[C@H](Cc1ccc(-c2ccc3c(c2)C2(CCN(C4COC4)CC2)OC3)cc1F)NC(=O)C1(C(F)F)CNC1` [compound 15, (S)-N-(1-cyano-2-(2-fluoro-4-(1′-(oxetan-3-yl)-3H-spiro[isobenzofuran-1,4′-piperidin]-6-yl)phenyl)ethyl)-3-(difluoromethyl)azetidine-3-carboxamide], the “pIC50 … (state of the art)” value is listed as “less than 5”. For `CN1C(=O)Cc2ccc(-c3ccc(C[C@@H](C#N)NC(=O)C4(C(F)F)CNC4)c(F)c3)cc21` [compound 16, (S)-N-(1-cyano-2-(2-fluoro-4-(1-methyl-2-oxoindolin-6-yl)phenyl)ethyl)-3-(difluoromethyl)azetidine-3-carboxamide], the “pIC50 … (state of the art)” value is listed as 5.9.

Target: T1, human DPP1 enzyme
Assay: Activity on human recombinant DPP1 isolated enzyme assay (H-Gly-Arg-AMC cleavage, fluorescence)
Type: biochemical
Settings: 0.35 nM human DPP1, 300 μM H-Gly-Arg-AMC, 30 min pre-incubation at 25° C., pH 5.0
Experimental: Human DPP1 enzyme activity was determined by measuring release of the fluorophore aminomethyl coumarin (AMC) following enzymatic cleavage of the dipeptide substrate H-Gly-Arg-AMC. Assays were performed in black 384 well plates in 25 mM piperazine buffer, pH 5.0, containing 50 mM NaCl, 0.01% (v/v) Triton X100, 5 mM DTT with 0.35 nM human DPP1 enzyme, 300 μM H-Gly-Arg-AMC substrate (˜Km concentration) and test compounds at 0.51-10000 nM concentration range. Human DPP1 was pre-incubated with test compounds for 30 minutes at 25° C. prior to substrate incubation for a further 40 minutes at 25° C. Enzyme activity was determined by measuring fluorescence of the AMC product at excitation and emission wavelengths of 380 nm and 460 nm using a BMG LABTECH PHERA star plate reader. Test compound potencies are reported in Table 15 as pIC50 values generated from 4-parameter sigmoidal curve fitting of the measured concentration-inhibition responses.
With `COC1(C(=O)N[C@H](C#N)Cc2ccc(-c3ccc4oc(=O)n(C)c4c3)cc2F)CNC1` [Example 36, (S)-N-(1-cyano-2-(2-fluoro-4-(3-methyl-2-oxo-2,3-dihydrobenzo[d]oxazol-5-yl)phenyl)ethyl)-3-methoxyazetidine-3-carboxamide] the “h DPP1 pIC50” value was “++++ (h DPP1 pIC50 higher than 8)”. In the case of `COC1(C(=O)N[C@H](C#N)Cc2ccc(-c3ccc4oc(=O)n(C)c4c3)cc2F)CN(C)C1` [Example 37, (S)-N-(1-cyano-2-(2-fluoro-4-(3-methyl-2-oxo-2,3-dihydrobenzo[d]oxazol-5-yl)phenyl)ethyl)-3-methoxy-1-methylazetidine-3-carboxamide], the “h DPP1 pIC50” value is reported as “++++ (h DPP1 pIC50 higher than 8)”. In the case of `COC1(C(=O)N[C@H](C#N)Cc2ccc(-c3ccc(C#N)cc3)cc2F)CN(C)C1` [Example 41, (S)-N-(1-cyano-2-(4′-cyano-3-fluoro-[1,1′-biphenyl]-4-yl)ethyl)-3-methoxy-1-methylazetidine-3-carboxamide], the “h DPP1 pIC50” value is reported as “++++ (h DPP1 pIC50 higher than 8)”. With `COC1(C(=O)N[C@H](C#N)Cc2ccc(-c3ccc4c(c3)C3(CCN(C5COC5)CC3)OC4)cc2F)CN(C)C1` [Example 47, (S)-N-(1-cyano-2-(2-fluoro-4-(1′-(oxetan-3-yl)-3H-spiro[isobenzofuran-1,4′-piperidin]-6-yl)phenyl)ethyl)-3-methoxy-1-methylazetidine-3-carboxamide] the “h DPP1 pIC50” value was “++++ (h DPP1 pIC50 higher than 8)”. In the case of `CN1C(=O)Cc2ccc(-c3ccc(C[C@@H](C#N)NC(=O)C4(CF)CNC4)c(F)c3)cc21` [Example 48, (S)-N-(1-cyano-2-(2-fluoro-4-(1-methyl-2-oxoindolin-6-yl)phenyl)ethyl)-3-(fluoromethyl)azetidine-3-carboxamide], the “h DPP1 pIC50” value is reported as “++++ (h DPP1 pIC50 higher than 8)”. In the case of `COC1(C(=O)N[C@H](C#N)Cc2ccc(-c3ccc4c(c3)N(C)C(=O)C4)cc2F)CNC1` [Example 49, (S)-N-(1-cyano-2-(2-fluoro-4-(1-methyl-2-oxoindolin-6-yl)phenyl)ethyl)-3-methoxyazetidine-3-carboxamide], the “h DPP1 pIC50” value is reported as “++++ (h DPP1 pIC50 higher than 8)”. With `COC1(C(=O)N[C@H](C#N)Cc2ccc(-c3ccc4c(c3)N(C)C(=O)C4)cc2F)CN(C)C1` [Example 50, (S)-N-(1-cyano-2-(2-fluoro-4-(1-methyl-2-oxoindolin-6-yl)phenyl)ethyl)-3-methoxy-1-methylazetidine-3-carboxamide] the “h DPP1 pIC50” value was “++++ (h DPP1 pIC50 higher than 8)”.

Same assay, conditions: 0.35 nM human DPP1, 300 μM H-Gly-Arg-AMC, 30 min pre-incubation at 25° C., pH 5.0; read-out: h DPP1 pIC50 (converted)
With `CC(C)OC1(C(=O)N[C@H](C#N)Cc2ccc(-c3ccc(C#N)cc3)cc2)CNC1` [Example 26, (S)-N-(1-cyano-2-(4′-cyano-[1,1′-biphenyl]-4-yl)ethyl)-3-isopropoxyazetidine-3-carboxamide] the IC50 was 1000 to 10000 nM. `COC1(C(=O)N[C@H](C#N)Cc2ccc(-c3ccc(C#N)cc3)cc2)CN(C2COC2)C1` [Example 29, (S)-N-(1-cyano-2-(4′-cyano-[1,1′-biphenyl]-4-yl)ethyl)-3-methoxy-1-(oxetan-3-yl)azetidine-3-carboxamide] showed an IC50 of 100 to 1000 nM. `COC1(C(=O)N[C@H](C#N)Cc2ccc(-c3ccc(C#N)cc3)cc2)CN(C(C)C)C1` [Example 30, (S)-N-(1-cyano-2-(4′-cyano-[1,1′-biphenyl]-4-yl)ethyl)-1-isopropyl-3-methoxyazetidine-3-carboxamide] gave an IC50 of 1000 to 10000 nM. For `COC1(C(=O)N[C@H](C#N)Cc2ccc(-c3ccc(C#N)cc3)cc2)CNC1C` (stereo partly drawn) [Example 31, N-((S)-1-cyano-2-(4′-cyano-[1,1′-biphenyl]-4-yl)ethyl)-3-methoxy-2-methylazetidine-3-carboxamide], the IC50 was 100 to 1000 nM. For `CN1CC(C(=O)N[C@H](C#N)Cc2ccc(-c3ccc(C#N)cc3)cc2)(C(F)F)C1` [Example 35, (S)-N-(1-cyano-2-(4′-cyano-[1,1′-biphenyl]-4-yl)ethyl)-3-(difluoromethyl)-1-methylazetidine-3-carboxamide], the IC50 was 100 to 1000 nM. Work on `CN1CC(O)(C(=O)N[C@H](C#N)Cc2ccc(-c3ccc(C#N)cc3)cc2)C1` [Example 38, (S)-N-(1-cyano-2-(4′-cyano-[1,1′-biphenyl]-4-yl)ethyl)-3-hydroxy-1-methylazetidine-3-carboxamide] yielded an IC50 of 10 to 100 nM. For `CN1CC(C(=O)N[C@H](C#N)Cc2ccc(-c3ccc4c(c3)C3(CCN(C5COC5)CC3)OC4)cc2F)(C(F)F)C1` [Example 39, (S)-N-(1-cyano-2-(2-fluoro-4-(1′-(oxetan-3-yl)-3H-spiro[isobenzofuran-1,4′-piperidin]-6-yl)phenyl)ethyl)-3-(difluoromethyl)-1-methylazetidine-3-carboxamide], the IC50 was 10 to 100 nM. In the case of `CN1CC(C(=O)N[C@H](C#N)Cc2ccc(-c3ccc(C#N)cc3)cc2F)(C(F)F)C1` [Example 40, (S)-N-(1-cyano-2-(4′-cyano-3-fluoro-[1,1′-biphenyl]-4-yl)ethyl)-3-(difluoromethyl)-1-methylazetidine-3-carboxamide], the IC50 is reported as 10 to 100 nM. Work on `COC1(C(=O)NC(C#N)Cc2ncc(-c3ccc(C#N)cc3)cc2F)CNC1` (stereo not shown) [Example 42, N-(1-cyano-2-(5-(4-cyanophenyl)-3-fluoropyridin-2-yl)ethyl)-3-methoxyazetidine-3-carboxamide] yielded an IC50 of 100 to 1000 nM. In the case of `CCCN1CC(OC)(C(=O)N[C@H](C#N)Cc2ccc(-c3ccc(C#N)cc3)cc2)C1` [Example 46, (S)-N-(1-cyano-2-(4′-cyano-[1,1′-biphenyl]-4-yl)ethyl)-3-methoxy-1-propylazetidine-3-carboxamide], the IC50 is reported as 1000 to 10000 nM. `COC1(C(=O)N[C@H](C#N)Cc2ccc(-c3ccc(C#N)cc3)cc2)CN(CC(C)C)C1` [Example 51, (S)-N-(1-cyano-2-(4′-cyano-[1,1′-biphenyl]-4-yl)ethyl)-1-isobutyl-3-methoxyazetidine-3-carboxamide] gave an IC50 of 1000 to 10000 nM. `CCN1CC(OC)(C(=O)N[C@H](C#N)Cc2ccc(-c3ccc(C#N)cc3)cc2)C1` [Example 52, (S)-N-(1-cyano-2-(4′-cyano-[1,1′-biphenyl]-4-yl)ethyl)-1-ethyl-3-methoxyazetidine-3-carboxamide] showed an IC50 of 100 to 1000 nM.
